Each structure is given as a SMILES string.

For 1 compound, Activity, Kb and logP results are on record in ChEMBL document CHEMBL1147188, “Metal complexes of retinoid derivatives with antiproliferative activity: synthesis, characterization and DNA interaction studies” (Eur J Med Chem, 2007).

In data set [1] the test system is PBMC. In words: Growth inhibition of human PBMC after 48 hrs by XTT assay. In kind it is cell-based. On the technique in general: Tetrazolium assays rely on reduction of a dye to a coloured formazan, in cell work by metabolically active cells.
The species named for data set [2] is Homo sapiens. In words: Binding affinity to DNA.
Data set [3] in a line: Partition coefficient, log P of the compound. The format is physicochemical. The settings on record: octanol/water.

In the case of `CC1=C(/C=C/C(C)=C\C=C\C(C)=C\C=N/NC(N)=S)C(C)(C)CCC1`, in data set [1], the Activity result is on record as “Non-toxic”. In data set [2], the Kb was 8.3 10^5/M. Besides, in data set [3], the logP (in general, a log measure of how a compound divides between an organic and an aqueous phase) is 1.05.
